Test results reported in US11345695B2, “Substituted nicotinimide inhibitors of BTK and their preparation and use in the treatment of cancer, inflammation and autoimmune disease” (GUANGZHOU INNOCARE PHARMA TECH CO., LTD., priority 2013, dated 2022).

Target: BTK (Homo sapiens (Human), UniProt Q06187)
Assay: kinase-tagged phage / affinity bead competition binding screen (qPCR readout)
Conditions: BTK versus SRC

Chain of BTK (Q06187 whole entry): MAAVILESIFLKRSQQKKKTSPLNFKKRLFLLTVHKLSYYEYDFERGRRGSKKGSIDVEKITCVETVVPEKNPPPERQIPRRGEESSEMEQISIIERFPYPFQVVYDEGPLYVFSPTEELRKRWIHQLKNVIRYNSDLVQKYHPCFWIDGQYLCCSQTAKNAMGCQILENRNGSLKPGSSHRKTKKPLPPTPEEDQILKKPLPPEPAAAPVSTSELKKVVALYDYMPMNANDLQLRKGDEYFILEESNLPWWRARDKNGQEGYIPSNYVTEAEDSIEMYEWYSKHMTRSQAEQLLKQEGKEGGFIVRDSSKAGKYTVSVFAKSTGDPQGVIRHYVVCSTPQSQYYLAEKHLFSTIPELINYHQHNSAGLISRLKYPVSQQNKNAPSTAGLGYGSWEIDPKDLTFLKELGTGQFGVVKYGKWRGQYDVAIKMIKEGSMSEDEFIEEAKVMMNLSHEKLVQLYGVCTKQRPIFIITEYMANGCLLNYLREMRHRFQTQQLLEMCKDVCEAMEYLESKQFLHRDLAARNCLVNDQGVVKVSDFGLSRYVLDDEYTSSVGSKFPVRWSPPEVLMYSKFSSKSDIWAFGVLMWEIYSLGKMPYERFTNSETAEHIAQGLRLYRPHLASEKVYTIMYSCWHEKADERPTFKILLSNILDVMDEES

SMILES: C=CC(=O)N1CCN(c2ccc(C(N)=O)c(-c3ccc(Oc4ccccc4)cc3)n2)CC1 [Example 5, 6-(4-acryloylpiperazin-1-yl)-2-(4-phenoxyphenyl)nicotinamide]
- Fold Difference: >100x
